The structures appear in SMILES notation. pIC50: −log10 of the molar value.

Here are results for 73 compounds from ChEMBL document CHEMBL4418497, “Compositions and methods relating to inhibiting serine hyrdoxymethyltransferase 2 activity” (2016).

The target of the experiment is T1, Serine hydroxymethyltransferase, mitochondrial (Homo sapiens, UniProt P34897).
T1 sequence (P34897 whole entry): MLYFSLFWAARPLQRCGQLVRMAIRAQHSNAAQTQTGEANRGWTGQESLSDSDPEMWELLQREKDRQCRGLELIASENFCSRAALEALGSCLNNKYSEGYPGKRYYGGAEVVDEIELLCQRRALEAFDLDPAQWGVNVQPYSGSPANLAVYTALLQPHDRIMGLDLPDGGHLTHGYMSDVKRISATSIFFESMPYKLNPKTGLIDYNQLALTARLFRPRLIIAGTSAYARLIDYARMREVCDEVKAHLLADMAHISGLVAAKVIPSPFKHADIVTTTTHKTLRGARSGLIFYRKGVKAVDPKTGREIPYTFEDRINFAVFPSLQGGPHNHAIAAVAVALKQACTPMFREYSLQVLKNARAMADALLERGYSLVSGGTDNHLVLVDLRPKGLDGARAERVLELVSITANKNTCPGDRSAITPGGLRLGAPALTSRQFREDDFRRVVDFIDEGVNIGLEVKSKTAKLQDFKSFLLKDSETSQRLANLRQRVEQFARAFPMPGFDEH
Description: Inhibition of His-tagged human recombinant SHMT2 expressed in Escherichia coli BLR(DE3) assessed as reduction in NADPH level using L-serine, THF and NADP+ incubated for 5 mins by SHMT2-MTHFD coupled reaction based fluorescence assay. Particulars: read-out: IC50.

As to `CC(C)Cn1cc(NC(=O)Nc2ccccc2)c2ccccc2c1=O`, the pIC50 is 5.62.

As for `COC(=O)c1sc(=S)n(-c2ccc3c(c2)OCO3)c1N`, the pIC50 was 5.53.

In the case of `O=C(CSc1nc2ncccc2o1)Nc1ccc(Br)cc1F`, the pIC50 is 5.74.

Consider `CCc1ccc(NS(=O)(=O)c2ccc3c4c2CC(=O)N4CC(C)S3)cc1` (stereo not drawn), for which the pIC50 is 5.67.

Consider `COc1ccc(N2C(=O)c3cccnc3C2Nc2ccc(OC)c(OC)c2)cc1` (stereo not drawn), for which the pIC50 is 5.53.

`CCC(Sc1nc2ncccc2o1)C(=O)Nc1c(C)cc(C)cc1C` (stereo not drawn): the negative logarithm of the IC50 (pIC50) is 5.60.

Consider `COc1cc(NC(=O)N2CCSc3ncccc32)cc(OC)c1`, for which the pIC50 is 5.59.

`COc1cc(OC)c(NC(=O)Nc2cn(CC(C)C)c(=O)c3ccccc23)cc1Cl`: the pIC50 is 5.53.

With `CCOC(=O)c1nc(Nc2cc(OC)ccc2OC)c2ccccc2n1`, the pIC50 is 4.85.

Take `CC(C)Cn1cc(NC(=O)NC2CCCCC2)c2ccccc2c1=O`: the pIC50 was 5.76.

For `CC(C)Cn1cc(NC(=O)NCCc2ccsc2)c2ccccc2c1=O`, the pIC50 is 5.78.

Regarding `O=C1CN(S(=O)(=O)c2ccc3[nH]c4c(c3c2)CCCC4)c2ccccc2N1`, the pIC50 was 5.17.

As for `COc1cc(OC)c(N(C)C(=O)Nc2cn(C)c(=O)c3ccccc23)cc1Cl`, the negative-log IC50 (pIC50) was 5.43.

`COc1cc2c(cc1OC)C(C)N(C(=O)Nc1cn(CC(C)C)c(=O)c3ccccc13)CC2` (stereo not drawn): the pIC50 was 5.52.

As to `Cn1nc(C(=O)N2CC=C(c3ccccc3)CC2)c2c1-c1ccsc1CC2`, the pIC50 was 6.07.

Take `COc1cc(OC)c(NC(=O)NCCC2=CSC3CC(C)CCC23)cc1Cl` (stereo not drawn): the pIC50 is 5.15.

For `COc1cc(NC(=O)n2ncc3cc(Cl)ccc32)cc(OC)c1`, the pIC50 was 4.93.

As to `CCOc1ccc(C2CC(=O)N3CN(c4ccc(OCC)cc4)CSC3=C2C#N)cc1` (stereo not drawn), the pIC50 is 4.98.

Take `Cc1nc(SCC(=O)Nc2cccc3nsnc23)oc1C`: the pIC50 was 5.60.

On to `CC1=NC2c3c(oc(C(=O)NC4CCCC4)c3C)CCC2S1` (stereo not drawn), for which the pIC50 is 5.36.

`COc1ccc(NC(=O)N2CCC3(CC2)Nc2ccccc2-n2cccc23)c(OC)c1`: the pIC50 was 5.46.

`CCOC(=O)CSc1nc2ccc(N)cc2s1`: the pIC50 is 6.15.

Regarding `CNc1nc2[nH]c(=O)cc(O)c2s1`, the pIC50 is 5.60.

Turning to `Cc1c(C(=O)NCCN2CCOCC2)oc2c1-c1[nH]ncc1CC2`, the pIC50 was 5.45.

Regarding `COc1ccc(NCc2cccn2-c2nnc(N3CCCCC3)s2)cc1OC`, the pIC50 was 5.47.

As to `CC(=O)Oc1cc2c(C(=O)N3CCN(c4ccccc4)CC3)c(C)oc2c2ccccc12`, the pIC50 was 5.54.

For the compound `CC(C)Cn1cc(NC(=O)NCCCN2CCCC(C)C2)c2ccccc2c1=O` (stereo not drawn), the pIC50 was 5.61.

Consider `COc1cc(NC2=C(c3ccccc3)C(=O)c3ccccc32)cc(OC)c1`, for which the pIC50 is 4.94.

With `COc1ccc(Nc2nc(Nc3ccc(OC)c(Cl)c3)c3cnn(C)c3n2)c(OC)c1`, the pIC50 was 5.61.

As to `CCOC(=O)c1c(C)oc2c1c1c(c3ccccc32)OCN(CCCC(=O)O)C1`, the pIC50 was 5.87.

On to `Cc1ccc(-c2cc(Nc3cccc4cccnc34)nc(C)n2)cc1`, for which the pIC50 is 5.82.

As to `CCOc1ccc(NS(=O)(=O)c2ccc3c4c2CC(=O)N4CC(C)S3)cc1` (stereo not drawn), the pIC50 is 5.30.

With `O=C(CSc1nc2ncccc2o1)Nc1ccc(S(=O)(=O)Nc2ccc(F)cc2)cc1`, the pIC50 was 5.56.

With `COc1ccc(NS(=O)(=O)c2cc(Br)cnc2N)cc1OC`, the pIC50 is 5.11.

In the case of `COc1ccc(OC)c(NC2c3ncccc3C(=O)N2c2ccccc2)c1` (stereo not drawn), the pIC50 is 4.81.

On to `CCN(CC)CCNC(=O)c1noc2c1CCc1sccc1-2`, for which the pIC50 was 5.38.

With `COc1cc(OC)c(NC(=O)N2CCC3(CC2)Nc2cc(F)ccc2-n2cccc23)cc1Cl`, the pIC50 is 5.38.

For `Cn1cc(NC(=O)NCCN2CCOCC2)c2ccccc2c1=O`, the negative-log IC50 (pIC50) was 5.17.

Take `O=C(Nc1ccc2c(c1)OCCO2)N1CCc2c([nH]c3ccccc23)C1c1ccccc1F` (stereo not drawn): the pIC50 is 5.32.

As to `COc1ccc(Nc2nnc(-n3nc(C)cc3C)c3ccccc23)c(OC)c1`, the pIC50 is 5.46.

As to `Cc1cc(NC(=O)N2CCSc3ncccc32)ccc1Br`, the negative-log IC50 (pIC50) is 5.36.

`O=C(Nc1cc(F)c2nc(N3CCOCC3)ccc2c1)c1ccco1`: the pIC50 is 5.45.

As for `CNC(=O)c1oc2c(c1C)C1N=C(C)SC1CC2` (stereo not drawn), the pIC50 was 5.29.

Take `Cc1ccc2oc(SCC(=O)Nc3cccc(N4CCCC4=O)c3)nc2n1`: the pIC50 was 5.35.

For `Cc1c(C(=O)NCCCN2CCOCC2)oc2c1-c1[nH]ncc1CC2`, the pIC50 was 5.38.

As for `COc1ccc(OC)c(NS(=O)(=O)c2cc(-c3cc(C)no3)ccc2C(C)C)c1`, the negative logarithm of the IC50 (pIC50) was 5.41.

For `CC(C)Cn1cc(NC(=O)Nc2ccccn2)c2ccccc2c1=O`, the pIC50 was 5.48.

For the compound `O=C(Nc1ccc2c(c1)OCCO2)N1CCSc2ncccc21`, the negative logarithm of the IC50 (pIC50) is 5.56.

Regarding `COc1ccc(OC)c(Nc2c(-c3ccc4c(c3)CCCC4)c(=O)c2=O)c1`, the pIC50 was 5.62.

`Cc1cc(=O)c2c(=O)n(-c3nc4ccccc4s3)[nH]c2[nH]1`: the pIC50 was 5.79.

For the compound `CC(=O)Nc1ccc2nc(SCc3cc(=O)n4nc(C)sc4n3)sc2c1`, the pIC50 is 5.51.

In the case of `Cn1cc(NC(=O)NCc2ccccn2)c2ccccc2c1=O`, the pIC50 was 5.32.

Consider `CCCNC(=O)Nc1cn(CC(C)C)c(=O)c2ccccc12`, for which the pIC50 was 5.67.

In the case of `CC(=O)N1CCc2c(c(=O)[nH]c3onc(C)c23)C1`, the pIC50 is 5.85.

As to `CCC1c2ccc(C)n2CCN1C(=O)Nc1cc(OC)cc(OC)c1` (stereo not drawn), the pIC50 is 5.10.

For `COc1cc(NC(=O)C2=Cc3sc(C)c(C)c3CS2)cc(OC)c1`, the pIC50 was 5.17.

Turning to `C=CCOc1ccc(C2CC(=O)Nc3c(-c4ccccc4OC)csc32)cc1` (stereo not drawn), the negative-log IC50 (pIC50) is 5.99.

Turning to `CCCCN1CCS(=O)(=O)c2c(Cl)c(N3CCOCC3)nc(Oc3ccc(F)cc3)c21`, the pIC50 is 5.34.

As to `CCC(=O)Nc1cc(F)c2nc(N3CCOCC3)ccc2c1`, the pIC50 was 5.81.

Consider `CN1CCN(CCCNC(=O)c2ccc(N3CCSc4ncccc43)s2)CC1`, for which the pIC50 is 5.42.

`COc1ccc(Nc2nc(NCCO)nc3c2cnn3C)cc1`: the pIC50 was 5.73.

On to `CC(C)Cn1cc(NC(=O)N2CCN(C(=O)c3ccco3)CC2)c2ccccc2c1=O`, for which the pIC50 is 5.34.

For the compound `CC(C)Cn1cc(NC(=O)Nc2ccc(N3CCC(C)CC3)cc2)c2ccccc2c1=O`, the pIC50 was 5.05.

In the case of `Cc1cccc(NC(=O)Nc2cn(CC(C)C)c(=O)c3ccccc23)n1`, the pIC50 is 5.59.

For `COCCN1CCn2c(nc3cc(NC(=O)NC4CCCCC4)ccc32)C1`, the pIC50 is 5.29.

Turning to `CCCCCC(C)n1nc(O)c2c(C)cc(=O)[nH]c21` (stereo not drawn), the pIC50 was 5.15.

Take `Cn1cnc2cc(NCc3ccco3)ccc21`: the pIC50 was 5.69.

As for `O=C1CSC(c2ccccn2)N1c1ccc2ccccc2c1` (stereo not drawn), the pIC50 was 4.96.

As for `COc1cc(OC)c(NC(=O)NCCc2csc(C)c2C)cc1Cl`, the pIC50 is 5.34.

Take `CCNc1nc2[nH]c(=O)cc(O)c2s1`: the pIC50 was 5.72.

Turning to `Cn1cc(NC(=O)N2CCCCC2)c2ccccc2c1=O`, the pIC50 was 5.03.

As for `O=C(Nc1cc(F)c2nc(N3CCCC3)ccc2c1)C1CCCCC1`, the pIC50 was 5.59.

For the compound `CC(=O)Oc1cc2c(C(=O)NCC3CCCO3)c(C)oc2c2ccccc12` (stereo not drawn), the pIC50 is 5.43.

As usually defined, the pIC50 is the IC50 on a negative log10 scale, so that one unit is a factor of ten.
